What is called EC50 is the concentration that produces a half-maximal response.

This passage reports EC50 and Emin results from ChEMBL document CHEMBL6178009, “Targeted Degradation of BCL6 Using Novel Bifunctional Degraders: A New Therapeutic Strategy for BCL6-Positive Cancers” (ACS Med Chem Lett, 2025).

Structures are written as SMILES.

For experiment [1], the target named is Protein cereblon/B-cell lymphoma 6 protein (Homo sapiens, UniProt P41182+Q96SW2). The experiment is described as follows: PROTAC activity at CRBN/N-terminal HiBit-tagged BCL6 in human HT-1080 cells transfected with pLV-UBC-N-HiBiT- BCL6-PGK-puro assessed as degradation of BCL6 incubated for 5 hrs by luminescence based NANO-Glo HIBiT lytic detection assay. It counts as cell-based. On the technique in general: HiBiT is a short tag that completes a luciferase, so light tracks the accessible tagged protein.

The target in experiment [2] is Protein cereblon/B-cell lymphoma 6 protein (Homo sapiens) (UniProt Q96SW2+P41182). The experiment is described as follows: PROTAC activity at CRBN/N-terminal HiBit-tagged BCL6 in human HT-1080 cells transfected with pLV-UBC-N-HiBiT- BCL6-PGK-puro assessed as degradation of BCL6 by measuring ratio of trough concentration of protein in cell compared to the concentration of protein before the cell contact with compound (Ymin) incubated for 5 hrs by luminescence based NANO-Glo HIBiT lytic detection assay relative to control.

`CNC(=O)COc1cc2cc(Nc3nc(N4CCN(CC5CCN(c6ccc7c(C8CCC(=O)NC8=O)nn(C)c7c6)CC5(F)F)C(C)C4)ncc3Cl)cnc2n(C(C)C)c1=O` (configuration not stated): the EC50 in experiment [1] is no more than 25 nM. In addition, the Emin in experiment [2] was found to be 30%.

`CNC(=O)COc1cc2cc(Nc3nc(N4CCN(CC5CCN(c6cccc7c(C8CCC(=O)NC8=O)nn(C)c67)CC5)CC4)ncc3Cl)cc3c2n(c1=O)CCO3` (configuration not stated): the EC50 in experiment [1] is no more than 25 nM. Also, the Emin in experiment [2] was less than 30%.

As to `CNC(=O)COc1cc2cc(Nc3nc(N4CCC5(CCN(CC6CCN(c7cc8c(cc7F)c(C7CCC(=O)NC7=O)nn8C)CC6)CC5)CC4)ncc3Cl)cnc2n(C)c1=O` (configuration not stated), the EC50 in experiment [1] is no more than 25 nM. Moreover, the Emin in experiment [2] is less than 30%.

As for `CNC(=O)COc1cc2cc(Nc3nc(N4CCC(CN5CCC(c6ccc7c(C8CCC(=O)NC8=O)nn(C)c7c6F)CC5)CC4)ncc3Cl)cc3c2n(c1=O)[C@@H](C)CO3` (some centres not stated), the EC50 in experiment [1] was no more than 25 nM. Also, the Emin in experiment [2] is less than 30%.

Take `CNC(=O)COc1cc2cc(Nc3nc(N4CCC5(CC4)CCN([C@H](C)C4CCN(c6ccc7c(C8CCC(=O)NC8=O)nn(C)c7c6)CC4)CC5)ncc3Cl)cnc2n(C)c1=O` (some centres not stated): the EC50 in experiment [1] is no more than 25 nM. Further, the Emin in experiment [2] is less than 30%.

As for `CNC(=O)COc1cc2cc(Nc3nc(N4CC[C@@H](CN5CCN(c6cccc7c(C8CCC(=O)NC8=O)nn(C)c67)CC5)[C@@H](C)C4)ncc3Cl)cc3c2n(c1=O)CCO3` (some centres not stated), in experiment [1], the EC50 is no more than 25 nM. Besides, the Emin in experiment [2] was less than 30%.
